Experiment [1] concerns CD45 expression (leukocytes) in the heart. Briefly: Inflammatory infiltrate: CD45 expression in the heart by Western blot (Example 4). Format: in vivo, mouse. The note with it: 72 hours after AMI; 4 mg/kg i.p. twice daily. How it is done:
(§1) Adult out-bred male CD1 mice (8-12 weeks of age) were supplied by Harlan Sprague Dawley (Indianapolis, Ind.). The experiments were conducted under the guidelines of laboratory animals for biomedical research published by National Institutes of Health (No. 85-23, revised 1996). The study protocol was approved by the Virginia Commonwealth University Institutional Animal Care and Use Committee. Experimental AMI was induced by permanent coronary artery ligation in order to induce a large non-reperfused infarct involving approximately 30% of the left ventricle and leading to an ischemic dilated cardiomyopathy (Mezzaroma et al. Proc Natl Acad Sci 2011—in press and Abbate et al. Circulation 2008; 117:2670-83). Briefly, mice were orotracheally intubated under anesthesia (pentobarbital 50 to 70 mg/kg), placed in the right lateral decubitus position, then subjected to a left thoracotomy, pericardiectomy, and ligation of the proximal left coronary artery. The chest was closed and the animals were allowed to recover. […]
In order to quantify the inflammatory infiltrate in the heart during AMI, this example measured CD45 expression (a marker for leukocytes) in the heart using Western Blot. […] The band intensity was determined by densitometric analysis using the Scion Image software and the results were expressed as percentage increase in intensity compared to the control sham samples.
(In general: A western blot detects proteins with antibodies after separation by electrophoresis.)

For experiment [2], the system named is CD1 mice with experimental AMI (permanent coronary artery ligation). The experiment can be described thus: Transthoracic echocardiography of cardiac remodeling after AMI (Example 4). The experiment is classed as in vivo, mouse. How it is done:
Adult out-bred male CD1 mice (8-12 weeks of age) were supplied by Harlan Sprague Dawley (Indianapolis, Ind.). The experiments were conducted under the guidelines of laboratory animals for biomedical research published by National Institutes of Health (No. 85-23, revised 1996). The study protocol was approved by the Virginia Commonwealth University Institutional Animal Care and Use Committee. Experimental AMI was induced by permanent coronary artery ligation in order to induce a large non-reperfused infarct involving approximately 30% of the left ventricle and leading to an ischemic dilated cardiomyopathy (Mezzaroma et al. Proc Natl Acad Sci 2011—in press and Abbate et al. Circulation 2008; 117:2670-83). Briefly, mice were orotracheally intubated under anesthesia (pentobarbital 50 to 70 mg/kg), placed in the right lateral decubitus position, then subjected to a left thoracotomy, pericardiectomy, and ligation of the proximal left coronary artery. The chest was closed and the animals were allowed to recover. The mice surviving surgery were randomly assigned to the different groups of treatment (N=6-15 per group). Sham operations were performed wherein animals underwent the same surgical procedure without coronary artery ligation (N=4-8 per group).
The A2B AdoR antagonist, Compound A, was obtained from Gilead Sciences, Foster City, Calif. Mice were randomly assigned to treatment with Compound A (4 mg/kg) or matching dose of vehicle administered intraperitoneally (final volume 0.13 mL) every 12 hours for 14 days starting immediately after coronary artery ligation surgery. An additional group of mice received a lower dose of Compound A (2 mg/kg) to explore a dose-response relationship. Two additional groups of mice received Compound A (4 mg/kg) starting 1 hour after surgery to simulate a clinical scenario of treatment delay. […]
All mice underwent transthoracic echocardiography at baseline (before surgery), and at 7, 14 and 28 days after surgery (prior to sacrifice). […] This example measured the left ventricular (LV) end-diastolic and end-systolic areas at B-Mode and the LV end-diastolic diameter (LVEDD), LV end-systolic diameters (LVESD), LV anterior wall diastolic thickness (LVAWDT), and LV posterior wall diastolic thickness (LVPWDT) at M-Mode, as previously described (Abbate et al. Circulation 2008; 117:2670-83; Toldo et al. PloS One 2011; 6:e18102) and according to the American Society of Echocardiography recommendations (Gardin et al. J Am Soc Echocardiogr 2002; 15:272-90). LV fractional shortening (FS), LV ejection fraction (EF), LV mass and eccentricity (LVEDD/LVPWDT ratio) were calculated (Abbate et al. Circulation 2008; 117:2670-83; Toldo et al. PloS One 2011; 6:e18102; Gardin et al. J Am Soc Echocardiogr 2002; 15:272-90). The transmitral and left ventricular out flow tract Doppler spectra were recorded from an apical 4-chamber views, and the myocardial performance index (MPI or Tei index) was calculated as the […] of the isovolumetric contraction and relaxation time divided by the ejection time (Tei et al. Am J Cardiol 1995; 26:357-366). LV stroke volume was calculated using the Velocity-Time Integral (VTI) of the LV outflow tract flow multiplied by the LV outflow tract area, and cardiac output was calculated multiplying LV stroke volume by the heart rate (Abbate et al. Circulation 2008; 117:2670-83; Toldo et al. PloS One 2011; 6:e18102; Gardin et al. J Am Soc Echocardiogr 2002; 15:272-90). […]

Experiment [3] shares this test system. Briefly: Survival after coronary artery ligation surgery (Example 4). The experiment is classed as in vivo, mouse. Particulars: P=0.14; vehicle 50%. On the procedure:
as §1
Differences between the groups were analyzed using the one-way ANOVA followed by Bonferroni test. Changes in repeated measures of echocardiographic data were analyzed using the random effects ANOVA for repeated-measures to determine the main effect of time, group, and time-by-group interaction. […]

In experiment [4] the test system is male mice with permanent coronary artery ligation. Briefly: Mouse model of myocardial infarction: ECHO, plasma biomarkers, mortality (Example 5). The experiment is classed as in vivo. On the procedure:
The effect of Compound A in a mouse model of myocardial infarction was also determined. Male mice underwent permanent coronary artery ligation or sham surgery. Compound A (4 mg/kg) was given i.p. BID starting immediately or 1 hr after the surgery and continued for 14 days. Trans-thoracic ECHO to measure LV end-diastolic/systolic diameter (LVEDD or LVESD), RV end-diastolic area (RVEDA) and myocardial performance index (MPI) was performed prior to surgery and after 7, 14 and 28 days. Analysis of biomarkers of tissue inflammation and injury was conducted on 28 days post-MI.

[5] abbreviates: mice with MI, 4 mg/kg i.p. BID starting immediately or 1 hr after the surgery.
The mark [6] stands for this setting: mice with MI, day 28 post-MI, treatment immediately after surgery.

Structures are written as SMILES.

Take `CCCn1c(=O)c2[nH]c(-c3cnn(Cc4cccc(C(F)(F)F)c4)c3)nc2n(CC)c1=O` [Compound A, 3-ethyl-1-propyl-8-(1-(3-(trifluoromethyl)benzyl)-1H-pyrazol-4-yl)-1H-purine-2,6(3H,7H)-dione]: the “intensity of the leukocyte (CD45+) infiltrate, CD45 expression at Western blot” value in experiment [1] is recorded as “significantly reduced”. In experiment [2] (AMI mice), the “myocardial diastolic/systolic performance (myocardial performance index)” value was “preservation”; the “right ventricular enlargement and dysfunction” value is “less”. The “absolute difference in mean LVEF vs vehicle” value in experiment [2] (LV systolic function significantly greater in Compound A group) is on record as 5%. Besides, in experiment [2] (at 28 days), the “reduction of LV enlargement after AMI” value is on record as “approximately 40%”. Also, the “left and right ventricular enlargement and dysfunction” value in experiment [2] (every 12 hours from surgery for 14 days, at 7 days, maintained at 14 and 28 days) is “significant attenuation”. Besides, in experiment [3], the “mice alive at 28 days after coronary artery ligation surgery” value is on record as 75%. The “mortality rate (printed: morality rate) of mice with MI during the 4 weeks” value in experiment [4] (4 mg/kg i.p. BID for 14 days, vehicle 42%) was 25%. In addition, in experiment [4] (mice with MI), the “increase of plasma level of sE-selectin” value is listed as “significantly inhibited”, the “increase of plasma level of sICAM” value was “significantly inhibited” and the “increase of plasma level of sVCAM” value is given as “significantly inhibited”. Moreover, in experiment [4] (setting [5]), the “LV/RV dimensions (LVEDD, LVESD, RVEDA)” value is on record as “significantly reduced” and the MPI entry is given as “reduced”. Besides, in experiment [4] (setting [6]), the “plasma concentration of IL-6” value was “significantly reduced”, the “plasma concentration of ST2” value was “significantly reduced” and the “plasma concentration of TNF-α” value is on record as “significantly reduced”. In experiment [4] (sham mice), the “myocardial remodeling/function in sham mice” value is on record as “no effect”. Besides, the “plasma biomarkers in sham-operated mice” value in experiment [4] (sham-operated mice) was “no effect”.

Values taken from US20120258974A1, “USE OF A2B ADENOSINE RECEPTOR ANTAGONISTS FOR TREATING HEART FAILURE AND ARRHYTHMIA IN POST-MYOCARDIAL INFARCTION PATIENTS” (GILEAD SCIENCES, INC., priority 2011, published 2012).
